Experimental findings from ChEMBL document CHEMBL4229426, “Synthesis, antitumor activity evaluation and mechanistic study of novel hederacolchiside A1 derivatives bearing an aryl triazole moiety” (Bioorg Med Chem, 2018) are described below.

Holding throughout (assay type): functional, cell-based
One test has as its system PC-3. The experiment in a line: Antiproliferative activity against human PC3 cells after 48 hrs by MTT assay. The following applies: PC-3, 48 h.
For another test, the system named is U-937. The experiment in a line: Antiproliferative activity against human U937 cells after 48 hrs by MTT assay. The settings on record: U-937, 48 h.
For a further test, the system named is A549. The test can be described thus: Antiproliferative activity against human A549 cells after 48 hrs by MTT assay. The following applies: A549, 48 h.
A further test relates to HT-29. The experiment in a line: Antiproliferative activity against human HT-29 cells after 48 hrs by MTT assay. The following applies: HT-29, 48 h.
The next test deals with HepG2. The experiment in a line: Antiproliferative activity against human HepG2 cells after 48 hrs by MTT assay. The following applies: HepG2, 48 h.
In another test the test system is HL-60. The test can be described thus: Antiproliferative activity against human HL60 cells after 48 hrs by MTT assay. The settings on record: HL-60, 48 h.

Molecules are shown by their SMILES.

Take `C[C@@H]1O[C@@H](O[C@H]2[C@H](O[C@H]3CC[C@]4(C)[C@H]5CC=C6[C@@H]7CC(C)(C)CC[C@]7(C(=O)NCc7cn(-c8ccc([N+](=O)[O-])cc8)nn7)CC[C@@]6(C)[C@]5(C)CC[C@H]4C3(C)C)OC[C@H](O[C@@H]3O[C@H](CO)[C@@H](O)[C@H](O)[C@H]3O)[C@@H]2O)[C@H](O)[C@H](O)[C@H]1O`: the IC50 in the test on PC-3 was found to be 5.56 µM; with U-937 it was 6.85 µM; in the test with A549, 3.98 µM; with HT-29, 3.04 µM; in the test with HepG2, 26.6 µM; in the test on HL-60, 21.1 µM.

Turning to `COc1cccc(-n2cc(CNC(=O)[C@]34CCC(C)(C)C[C@H]3C3=CC[C@@H]5[C@@]6(C)CC[C@H](O[C@@H]7OC[C@H](O[C@@H]8O[C@H](CO)[C@@H](O)[C@H](O)[C@H]8O)[C@H](O)[C@H]7O[C@@H]7O[C@@H](C)[C@H](O)[C@@H](O)[C@H]7O)C(C)(C)[C@@H]6CC[C@@]5(C)[C@]3(C)CC4)nn2)c1`, the IC50 in the test on PC-3 was found to be 0.23 µM; in the test with U-937 it was 5.9 µM; with A549, 2.45 µM; with HT-29, 3.48 µM; in the test on HepG2, 1.66 µM; with HL-60, 5.66 µM.

On to `Cc1cccc(C)c1-n1cc(CNC(=O)[C@]23CCC(C)(C)C[C@H]2C2=CC[C@@H]4[C@@]5(C)CC[C@H](O[C@@H]6OC[C@H](O[C@@H]7O[C@H](CO)[C@@H](O)[C@H](O)[C@H]7O)[C@H](O)[C@H]6O[C@@H]6O[C@@H](C)[C@H](O)[C@@H](O)[C@H]6O)C(C)(C)[C@@H]5CC[C@@]4(C)[C@]2(C)CC3)nn1`, for which the IC50 in the test on PC-3 stood at 8.96 µM; in the test on U-937 it was 8.48 µM; in the test with A549 it was 6.08 µM; in the test on HT-29 it was 7.66 µM; with HepG2 it was 3.31 µM; with HL-60 it was 4.47 µM.

In the case of `C[C@@H]1O[C@@H](O[C@H]2[C@H](O[C@H]3CC[C@]4(C)[C@H]5CC=C6[C@@H]7CC(C)(C)CC[C@]7(C(=O)NCc7cn(-c8ccccc8[N+](=O)[O-])nn7)CC[C@@]6(C)[C@]5(C)CC[C@H]4C3(C)C)OC[C@H](O[C@@H]3O[C@H](CO)[C@@H](O)[C@H](O)[C@H]3O)[C@@H]2O)[C@H](O)[C@H](O)[C@H]1O`, the IC50 with PC-3 turned out to be 50.5 µM; in the test with U-937 it was 40.1 µM; in the test with A549, 54.9 µM; in the test on HT-29 it was 7.76 µM; in the test on HepG2 it was 34.9 µM; in the test with HL-60, 36.7 µM.

As for `CC(=O)c1ccccc1-n1cc(CNC(=O)[C@]23CCC(C)(C)C[C@H]2C2=CC[C@@H]4[C@@]5(C)CC[C@H](O[C@@H]6OC[C@H](O[C@@H]7O[C@H](CO)[C@@H](O)[C@H](O)[C@H]7O)[C@H](O)[C@H]6O[C@@H]6O[C@@H](C)[C@H](O)[C@@H](O)[C@H]6O)C(C)(C)[C@@H]5CC[C@@]4(C)[C@]2(C)CC3)nn1`, the IC50 in the test on PC-3 was 49.6 µM; with U-937, 11.3 µM; in the test on A549 it was 10.5 µM; in the test on HT-29, 35.6 µM; with HepG2, 12.4 µM; in the test on HL-60, 14.3 µM.

With `C[C@@H]1O[C@@H](O[C@H]2[C@H](O[C@H]3CC[C@]4(C)[C@H]5CC=C6[C@@H]7CC(C)(C)CC[C@]7(C(=O)NCc7cn(-c8cccc(Br)c8)nn7)CC[C@@]6(C)[C@]5(C)CC[C@H]4C3(C)C)OC[C@H](O[C@@H]3O[C@H](CO)[C@@H](O)[C@H](O)[C@H]3O)[C@@H]2O)[C@H](O)[C@H](O)[C@H]1O`, the IC50 in the test with PC-3 turned out to be 0.49 µM; in the test with U-937, 0.72 µM; in the test on A549, 0.89 µM; with HT-29, 1.77 µM; in the test on HepG2 it was 7.29 µM; in the test with HL-60, 0.99 µM.

Turning to `C[C@@H]1O[C@@H](O[C@H]2[C@H](O[C@H]3CC[C@]4(C)[C@H]5CC=C6[C@@H]7CC(C)(C)CC[C@]7(C(=O)NCc7cn(-c8ccccc8)nn7)CC[C@@]6(C)[C@]5(C)CC[C@H]4C3(C)C)OC[C@H](O[C@@H]3O[C@H](CO)[C@@H](O)[C@H](O)[C@H]3O)[C@@H]2O)[C@H](O)[C@H](O)[C@H]1O`, the IC50 in the test on PC-3 was 45 µM; in the test with U-937, 8.79 µM; in the test on A549, 3.74 µM; with HT-29 it was 9.3 µM; in the test with HepG2, 25.8 µM; with HL-60 it was 18.5 µM.

With `CC(=O)c1cccc(-n2cc(CNC(=O)[C@]34CCC(C)(C)C[C@H]3C3=CC[C@@H]5[C@@]6(C)CC[C@H](O[C@@H]7OC[C@H](O[C@@H]8O[C@H](CO)[C@@H](O)[C@H](O)[C@H]8O)[C@H](O)[C@H]7O[C@@H]7O[C@@H](C)[C@H](O)[C@@H](O)[C@H]7O)C(C)(C)[C@@H]6CC[C@@]5(C)[C@]3(C)CC4)nn2)c1`, the IC50 worked out at 6.28 µM in the test with PC-3; 0.81 µM with U-937; 0.44 µM with A549; 3.33 µM in the test on HT-29; 0.5 µM in the test with HepG2; 5.66 µM with HL-60.

On to `Cc1ccccc1-n1cc(CNC(=O)[C@]23CCC(C)(C)C[C@H]2C2=CC[C@@H]4[C@@]5(C)CC[C@H](O[C@@H]6OC[C@H](O[C@@H]7O[C@H](CO)[C@@H](O)[C@H](O)[C@H]7O)[C@H](O)[C@H]6O[C@@H]6O[C@@H](C)[C@H](O)[C@@H](O)[C@H]6O)C(C)(C)[C@@H]5CC[C@@]4(C)[C@]2(C)CC3)nn1`, for which the IC50 amounted to 5.03 µM in the test on PC-3; 4.68 µM in the test on U-937; 4.13 µM with A549; 5.35 µM in the test with HT-29; 1.51 µM in the test on HepG2; 3.84 µM with HL-60.

On to `C[C@@H]1O[C@@H](O[C@H]2[C@H](O[C@H]3CC[C@]4(C)[C@H]5CC=C6[C@@H]7CC(C)(C)CC[C@]7(C(=O)NCc7cn(-c8cccnc8)nn7)CC[C@@]6(C)[C@]5(C)CC[C@H]4C3(C)C)OC[C@H](O[C@@H]3O[C@H](CO)[C@@H](O)[C@H](O)[C@H]3O)[C@@H]2O)[C@H](O)[C@H](O)[C@H]1O`, for which the IC50 with PC-3 came out at 41.1 µM; in the test on U-937 it was 9.03 µM; in the test on A549 it was 47.2 µM; in the test with HT-29, 37.8 µM; in the test with HepG2 it was 20.1 µM; in the test with HL-60, 9.94 µM.

Regarding `C[C@@H]1O[C@@H](O[C@H]2[C@H](O[C@H]3CC[C@]4(C)[C@H]5CC=C6[C@@H]7CC(C)(C)CC[C@]7(C(=O)NCc7cn(-c8cccc(F)c8)nn7)CC[C@@]6(C)[C@]5(C)CC[C@H]4C3(C)C)OC[C@H](O[C@@H]3O[C@H](CO)[C@@H](O)[C@H](O)[C@H]3O)[C@@H]2O)[C@H](O)[C@H](O)[C@H]1O`, the IC50 in the test with PC-3 worked out at 0.72 µM; in the test on U-937, 3.12 µM; in the test on A549, 4.25 µM; in the test on HT-29, 2.23 µM; in the test with HepG2 it was 0.9 µM; in the test with HL-60, 1.32 µM.

On to `COc1ccc(-n2cc(CNC(=O)[C@]34CCC(C)(C)C[C@H]3C3=CC[C@@H]5[C@@]6(C)CC[C@H](O[C@@H]7OC[C@H](O[C@@H]8O[C@H](CO)[C@@H](O)[C@H](O)[C@H]8O)[C@H](O)[C@H]7O[C@@H]7O[C@@H](C)[C@H](O)[C@@H](O)[C@H]7O)C(C)(C)[C@@H]6CC[C@@]5(C)[C@]3(C)CC4)nn2)cc1`, for which the IC50 with PC-3 was determined as 0.55 µM; with U-937 it was 0.79 µM; in the test on A549 it was 4.86 µM; with HT-29 it was 1.13 µM; with HepG2 it was 3.58 µM; in the test on HL-60, 2.48 µM.
